Measurements as given in ChEMBL document CHEMBL2321798, “Polyamino geranic derivatives as new chemosensitizers to combat antibiotic resistant gram-negative bacteria” (Bioorg Med Chem, 2013).
pIC50: −log10 of the molar value. In brackets after ≈: the same amount, converted by molar mass. Activity calls are given as the source filed them. The rule behind the calls is not given here. Residues, ends and D or L forms follow the SMILES beside them. *: point of attachment. βNA = c1ccc2cc(N*)ccc2c1

Assays:
Klebsiella aerogenes [1] = test: Antibacterial activity against Enterobacter aerogenes Ea289 after 18 hrs by broth dilution method; format: functional; details: Ea289, 18 h
Salmonella typhimurium [2] = test: Antibacterial activity against Salmonella enterica Typhimurium BN10055 harboring deltaacrB after 18 hrs by broth dilution method; format: functional, Salmonella enterica subsp. enterica serovar Typhimurium; details: BN10055, 18 h
Klebsiella aerogenes [3] = test: Antibacterial activity against Enterobacter aerogenes Ea294 harboring Ea289deltaacrB after 18 hrs by broth dilution method; format: functional; details: Ea294, 18 h
Salmonella typhimurium [4] = test: Antibacterial activity against Salmonella enterica Typhimurium BN10055 after 18 hrs by broth dilution method; format: functional, Salmonella enterica subsp. enterica serovar Typhimurium; details: BN10055, 18 h
Salmonella typhimurium [5] = test: Reduction of multidrug-resistant in Salmonella enterica Typhimurium BN10055 harboring deltaacrB assessed as ratio of chloramphenicol MIC to chloramphenicol MIC in presence of compound by micro-broth dilution method; format: functional, organism-based; details: Salmonella enterica subsp. enterica serovar Typhimurium
Salmonella typhimurium [6] = test: Reduction of multidrug-resistant in Salmonella enterica Typhimurium BN10055 assessed as ratio of chloramphenicol MIC to chloramphenicol MIC in presence of compound at 75 uM by micro-broth dilution method; format: functional, Salmonella enterica subsp. enterica serovar Typhimurium
CHO = test: Cytotoxicity against CHO cells; format: cell-based; details: Cricetulus griseus
Klebsiella aerogenes [7] = test: Reduction of multidrug-resistant in Enterobacter aerogenes Ea289 assessed as ratio of nalidixic acid MIC to nalidixic acid MIC in presence of compound at 75 uM by micro-broth dilution method; format: functional
Salmonella typhimurium [8] = test: Reduction of multidrug-resistant in Salmonella enterica Typhimurium BN10055 assessed as ratio of nalidixic acid MIC to nalidixic acid MIC in presence of compound at 75 uM by micro-broth dilution method; format: functional, Salmonella enterica subsp. enterica serovar Typhimurium
Salmonella typhimurium [9] = test: Reduction of multidrug-resistant in Salmonella enterica Typhimurium BN10055 harboring deltaacrB assessed as ratio of nalidixic acid MIC to nalidixic acid MIC in presence of compound by micro-broth dilution method; format: functional, organism-based; details: Salmonella enterica subsp. enterica serovar Typhimurium
Klebsiella aerogenes [10] = test: Reduction of multidrug-resistant in Enterobacter aerogenes Ea294 harboring Ea289deltaacrB assessed as ratio of chloramphenicol MIC to chloramphenicol MIC in presence of compound by micro-broth dilution method; format: functional, organism-based
Klebsiella aerogenes [11] = test: Reduction of multidrug-resistant in Enterobacter aerogenes Ea294 harboring Ea289deltaacrB assessed as ratio of nalidixic acid MIC to nalidixic acid MIC in presence of compound by micro-broth dilution method; format: functional, organism-based
Klebsiella aerogenes [12] = test: Reduction of multidrug-resistant in Enterobacter aerogenes Ea289 assessed as ratio of chloramphenicol MIC to chloramphenicol MIC in presence of compound at 75 uM by micro-broth dilution method; format: functional
[13] = target: T1, AcrB protein (Klebsiella aerogenes) (UniProt Q9AEG1); test: Inhibition of AcrB in Enterobacter aerogenes Ea289 assessed as glucose-induced 1,2' dinaphthylamine efflux after 18 hrs
T1 sequence (whole entry): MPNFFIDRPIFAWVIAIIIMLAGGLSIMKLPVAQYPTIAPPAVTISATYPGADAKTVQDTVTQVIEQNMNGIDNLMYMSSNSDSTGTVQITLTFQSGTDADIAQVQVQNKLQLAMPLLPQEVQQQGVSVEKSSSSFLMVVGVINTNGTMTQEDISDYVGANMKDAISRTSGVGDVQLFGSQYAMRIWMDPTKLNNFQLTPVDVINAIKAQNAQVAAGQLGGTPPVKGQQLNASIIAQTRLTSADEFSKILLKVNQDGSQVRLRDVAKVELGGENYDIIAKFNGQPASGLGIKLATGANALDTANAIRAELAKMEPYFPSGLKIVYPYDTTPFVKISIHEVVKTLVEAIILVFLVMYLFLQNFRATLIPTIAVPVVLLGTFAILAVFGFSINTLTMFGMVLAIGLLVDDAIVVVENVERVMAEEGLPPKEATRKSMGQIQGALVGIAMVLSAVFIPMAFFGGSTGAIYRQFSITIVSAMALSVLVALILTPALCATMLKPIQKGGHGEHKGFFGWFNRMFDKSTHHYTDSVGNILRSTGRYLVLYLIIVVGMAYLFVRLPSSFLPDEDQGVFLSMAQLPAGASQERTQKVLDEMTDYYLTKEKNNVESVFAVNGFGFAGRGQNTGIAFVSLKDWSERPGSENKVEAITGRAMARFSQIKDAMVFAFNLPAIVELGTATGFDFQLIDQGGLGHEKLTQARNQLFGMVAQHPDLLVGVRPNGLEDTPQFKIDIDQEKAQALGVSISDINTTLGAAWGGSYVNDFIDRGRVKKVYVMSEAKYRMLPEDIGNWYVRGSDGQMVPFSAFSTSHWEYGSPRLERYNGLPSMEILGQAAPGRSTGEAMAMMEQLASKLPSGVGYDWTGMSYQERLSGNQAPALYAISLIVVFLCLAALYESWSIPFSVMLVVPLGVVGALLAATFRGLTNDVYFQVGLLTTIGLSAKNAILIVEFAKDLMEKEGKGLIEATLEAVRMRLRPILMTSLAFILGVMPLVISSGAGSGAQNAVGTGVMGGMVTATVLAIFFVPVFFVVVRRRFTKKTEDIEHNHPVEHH

Klebsiella aerogenes [14] = test: Reduction of multidrug-resistant in Enterobacter aerogenes Ea289 assessed as ratio of chloramphenicol MIC to chloramphenicol MIC in presence of compound at 38 uM by micro-broth dilution method; format: functional
Salmonella typhimurium [15] = test: Reduction of multidrug-resistant in Salmonella enterica Typhimurium BN10055 assessed as ratio of nalidixic acid MIC to nalidixic acid MIC in presence of compound at 38 uM by micro-broth dilution method; format: functional, Salmonella enterica subsp. enterica serovar Typhimurium
Salmonella typhimurium [16] = test: Reduction of multidrug-resistant in Salmonella enterica Typhimurium BN10055 assessed as ratio of chloramphenicol MIC to chloramphenicol MIC in presence of compound at 38 uM by micro-broth dilution method; format: functional, Salmonella enterica subsp. enterica serovar Typhimurium
Klebsiella aerogenes [17] = test: Reduction of multidrug-resistant in Enterobacter aerogenes Ea289 assessed as ratio of nalidixic acid MIC to nalidixic acid MIC in presence of compound at 38 uM by micro-broth dilution method; format: functional

SMILES | MIC (Klebsiella aerogenes [1]) [µM] | MIC (Salmonella typhimurium [2]) [µM] | MIC (Klebsiella aerogenes [3]) [µM] | MIC (Salmonella typhimurium [4]) [µM] | further results
CCn1cc(C(=O)O)c(=O)c2ccc(C)nc21 [NALIDIXIC ACID] | 17600 (≈ 4090 µg/mL) | 275 (≈ 63.9 µg/mL) | 4400 (≈ 1020 µg/mL) | 17600 (≈ 4090 µg/mL) | –
CC[C@H]1OC(=O)[C@H](C)[C@@H](O[C@H]2C[C@@](C)(OC)[C@@H](O)[C@H](C)O2)[C@H](C)[C@@H](O[C@@H]2O[C@H](C)C[C@H](N(C)C)[C@H]2O)[C@](C)(O)C[C@@H](C)C(=O)[C@H](C)[C@@H](O)[C@]1(C)O [ERYTHROMYCIN] | 350 (≈ 257 µg/mL) | 55 (≈ 40.4 µg/mL) | 110 (≈ 80.7 µg/mL) | 350 (≈ 257 µg/mL) | –
CC(C)=CCC/C(C)=C/C(=O)NCCCN1CCOCC1 | > 250 | – | > 250 | > 250 | Activity (Salmonella typhimurium [5]): inactive; Ratio (Salmonella typhimurium [6]): 1; pIC50 (CHO): < 3.82; Ratio (Klebsiella aerogenes [7]): 1; Ratio (Salmonella typhimurium [8]): 1; Activity (Salmonella typhimurium [9]): inactive; Activity (Klebsiella aerogenes [10]): inactive; Activity (Klebsiella aerogenes [11]): inactive; Ratio (Klebsiella aerogenes [12]): 1
O=C(N[C@H](CO)[C@H](O)c1ccc([N+](=O)[O-])cc1)C(Cl)Cl [CHLORAMPHENICOL] | 3200 (≈ 1030 µg/mL) | 200 (≈ 64.6 µg/mL) | 200 (≈ 64.6 µg/mL) | 3200 (≈ 1030 µg/mL) | –
CC(C)=CCC/C(C)=C/C(=O)NCCCNCCCCNCCCN | – | – | – | – | inhibition [13]: Dose-dependent effect
C[C@H]1c2cccc(O)c2C(=O)C2=C(O)[C@]3(O)C(=O)C(C(N)=O)=C(O)[C@@H](N(C)C)[C@@H]3[C@@H](O)[C@@H]21 [DOXYCYCLINE] | 72 (≈ 32 µg/mL) | 4.5 (≈ 2 µg/mL) | 2.25 (≈ 1 µg/mL) | 144 (≈ 64 µg/mL) | –
N=C(N)NCCC[C@H](NC(=O)[C@@H](N)Cc1ccccc1)C(=O)Nc1ccc2ccccc2c1 [PABETAN] (H-Phe-Arg-βNA) | 2430 (≈ 1090 µg/mL) | 150 (≈ 67 µg/mL) | 150 (≈ 67 µg/mL) | 1220 (≈ 543 µg/mL) | Ratio (Klebsiella aerogenes [14]): 16; Ratio (Salmonella typhimurium [15]): 64; Ratio (Salmonella typhimurium [16]): 8; Ratio (Klebsiella aerogenes [17]): 8
